pIC50: −log10 of the molar value.
Experiments:
MLM stability assay = type: in vitro ADME, mouse; conditions: percentage of compound remaining after 30 min; 10 μM
LOX = molecular target: T1, LOX (Sus scrofa, UniProt P45845); assay: LOX enzyme activity assay (HRP-coupled fluorescent, cadaverine substrate); type: biochemical, pig; conditions: for pIC50: n ≥ 2, n = 2: individual values, n > 2: geometric mean [95% CI], 20 min preincubation, read-out: LOX IC50;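 for all read-outs here: LOX isolated from porcine skin, nine-point dilution series starting at 100 µM, 20 min preincubation with enzyme, BAPN serving as positive control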
T1 construct: LOX enzyme was extracted from pig skin by the method of Shackleton and Hulmes; from tissue; host or cells: pig skin
T1 sequence (P45845 1-249): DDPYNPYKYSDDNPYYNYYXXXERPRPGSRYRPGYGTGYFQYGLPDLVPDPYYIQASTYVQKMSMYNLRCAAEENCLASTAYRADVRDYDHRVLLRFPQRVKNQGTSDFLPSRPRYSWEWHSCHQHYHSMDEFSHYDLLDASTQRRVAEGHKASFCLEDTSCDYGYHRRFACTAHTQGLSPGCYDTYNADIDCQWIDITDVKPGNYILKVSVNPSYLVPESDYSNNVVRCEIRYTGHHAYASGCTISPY

In vivo PK in mice = assay: In vivo PK in mice; set-up: species or system mouse; conditions: for AUC(PO) / Cmax: mouse plasma, single oral gavage dose 50 mg/kg
DAO = molecular target: T2, DAO (Sus scrofa, UniProt Q9TRC7); assay: biochemical; conditions: n = 2 individual values
T2 construct: purchased Sigma
T2 sequence (Q9TRC7 25-755): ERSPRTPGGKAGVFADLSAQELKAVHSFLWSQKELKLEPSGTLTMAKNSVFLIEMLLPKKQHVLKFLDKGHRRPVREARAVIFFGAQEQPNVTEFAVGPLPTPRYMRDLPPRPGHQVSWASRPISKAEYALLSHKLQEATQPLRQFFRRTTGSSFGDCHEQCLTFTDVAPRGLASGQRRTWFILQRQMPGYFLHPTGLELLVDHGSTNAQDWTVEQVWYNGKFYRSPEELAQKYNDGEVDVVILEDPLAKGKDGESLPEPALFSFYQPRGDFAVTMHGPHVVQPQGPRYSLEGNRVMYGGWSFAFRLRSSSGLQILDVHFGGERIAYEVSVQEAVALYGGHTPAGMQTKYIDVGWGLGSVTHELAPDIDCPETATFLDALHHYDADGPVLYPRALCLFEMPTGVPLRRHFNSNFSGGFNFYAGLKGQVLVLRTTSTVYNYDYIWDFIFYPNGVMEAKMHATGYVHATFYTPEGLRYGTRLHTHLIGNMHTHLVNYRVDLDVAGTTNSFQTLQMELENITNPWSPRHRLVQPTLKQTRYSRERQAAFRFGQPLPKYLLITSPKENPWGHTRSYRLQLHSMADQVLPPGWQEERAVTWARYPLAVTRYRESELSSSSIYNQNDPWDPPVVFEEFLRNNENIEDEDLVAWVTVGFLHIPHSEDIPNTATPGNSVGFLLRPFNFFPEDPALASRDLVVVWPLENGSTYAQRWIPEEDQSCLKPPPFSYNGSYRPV

MAO-B = molecular target: T3, MAO-B (Homo sapiens, UniProt P27338); assay: MAO-B assay (MAO-Glo); type: biochemical; conditions: n = 2 individual values
T3 construct: purchased Sigma
T3 sequence (P27338 1-520): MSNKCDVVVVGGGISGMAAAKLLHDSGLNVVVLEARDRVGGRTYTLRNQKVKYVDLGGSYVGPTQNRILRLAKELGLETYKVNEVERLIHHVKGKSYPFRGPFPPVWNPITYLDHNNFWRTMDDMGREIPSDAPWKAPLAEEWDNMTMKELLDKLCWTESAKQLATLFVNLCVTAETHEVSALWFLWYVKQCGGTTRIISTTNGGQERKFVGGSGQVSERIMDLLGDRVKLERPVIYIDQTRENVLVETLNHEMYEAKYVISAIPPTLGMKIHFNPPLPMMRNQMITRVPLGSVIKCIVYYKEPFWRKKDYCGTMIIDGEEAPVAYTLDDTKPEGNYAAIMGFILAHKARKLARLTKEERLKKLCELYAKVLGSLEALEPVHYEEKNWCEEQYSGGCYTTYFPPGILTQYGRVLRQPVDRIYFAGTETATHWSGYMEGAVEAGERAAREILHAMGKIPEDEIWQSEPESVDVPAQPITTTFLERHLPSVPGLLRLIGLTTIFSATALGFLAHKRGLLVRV

[1] = Caco-2 permeability assay; type: in vitro ADME; conditions: human

SMILES | MLM stability (%) (MLM stability assay) | pIC50 (LOX) | AUC(PO) (In vivo PK in mice) | Cmax (In vivo PK in mice) | also measured
CS(=O)(=O)N1CCCN(S(=O)(=O)c2ccc(CN)s2)CC1 [2m, (5-(4-(Methylsulfonyl)-1,4-diazepan-1-ylsulfonyl)thiophen-2-yl)methanamine] | 37% | 6.03 |  |  | 
NCc1ccc(S(=O)(=O)c2ccc3ccccc3c2)s1 [3g, (5-(Naphthalen-2-ylsulfonyl)thiophen-2-yl)methanamine] | 100% |  | 4.2 µM·h | 15 µM | 
CS(=O)(=O)c1ccc(S(=O)(=O)c2ccc(CN)s2)cc1 [3i, (5-(4-(Methylsulfonyl)phenylsulfonyl)thiophen-2-yl)methanamine] | 67% |  |  |  | 
NC(=O)c1ccc(S(=O)(=O)c2ccccc2)s1 [6e, 5-(Phenylsulfonyl)thiophene-2-carboxamide] |  | < 4.00 |  |  | 
O=S(=O)(c1ccc2ccccc2c1)c1ccc(/C=N/O)s1 [6f, 5-(Naphthalen-2-ylsulfonyl)thiophene-2-carbaldehyde Oxime] |  | < 4.00 |  |  | 
CC(C)(C)Oc1cc(S(C)(=O)=O)cc(S(=O)(=O)c2ccc(CN)s2)c1 [9b, (5-((3-(tert-Butoxy)-5-(methylsulfonyl)phenyl)sulfonyl)thiophen-2-yl)methanamine] | 67% |  | 2.3 µM·h | 6.3 µM | 
CS(=O)(=O)c1cc(-c2ccccc2)cc(S(=O)(=O)c2ccc(CN)s2)c1 [9f] |  |  |  |  | pIC50 (DAO): < 4.00
Cc1ccc(-c2cc(S(=O)(=O)c3ccc(CN)s3)ccc2S(C)(=O)=O)cc1.Cl [9l, (5-((4′-Methyl-6-(methylsulfonyl)-[1,1′-biphenyl]-3-yl)sulfonyl)thiophen-2-yl)methanamine Hydrochloride] | 95% |  | 12 µM·h | 9.4 µM | pIC50 (MAO-B): < 4.00; Papp A→B ([1]; A → B): 18 ×10⁻⁶ cm/s; Papp B→A ([1]; B → A): 25 ×10⁻⁶ cm/s; F (oral bioavailability) (In vivo PK in mice; mouse, PO 50 mg/kg vs IV 10 mg/kg): 74%; CL(IV) (In vivo PK in mice; mouse, intravenous 10 mg/kg): 106 mL/min/kg; t1/2(IV) (In vivo PK in mice; mouse, intravenous 10 mg/kg): 24 min; pIC50 (DAO): < 4.00; LOX inhibition (in words) (LOX): sub-micromolar

More lines, main results first:

MLM stability (%) (MLM stability assay) | pIC50 (LOX) | AUC(PO) (In vivo PK in mice) | Cmax (In vivo PK in mice) | SMILES | also measured
 | < 4.00 |  |  | NCc1sccc1S(=O)(=O)c1ccc2ccccc2c1 [7a, (3-(Naphthalen-2-ylsulfonyl)thiophen-2-yl)methanamine] | LOX inhibition (in words) (LOX): no inhibitory activity
 | < 4.00 |  |  | NCc1cscc1S(=O)(=O)c1ccc2ccccc2c1 [7b, (4-(Naphthalen-2-ylsulfonyl)thiophen-3-yl)methanamine] | LOX inhibition (in words) (LOX): no inhibitory activity
59% |  | 0.22 µM·h | 0.83 µM | NCc1ccc(S(=O)(=O)c2cccc(S(=O)(=O)N3CCCC3)c2)s1 [8d, (5-((3-(Pyrrolidin-1-ylsulfonyl)phenyl)sulfonyl)thiophen-2-yl)methanamine] | 
63% |  | 0.46 µM·h | 1.5 µM | NCc1ccc(S(=O)(=O)c2cccc(S(=O)(=O)N3CCC[C@H]3CO)c2)s1 [8e, (S)-(1-((3-((5-(Aminomethyl)thiophen-2-yl)sulfonyl)phenyl)sulfonyl)pyrrolidin-2-yl)methanol] | 
91% |  | 0.36 µM·h | 0.38 µM | CC(=O)NCCS(=O)(=O)c1ccc(S(=O)(=O)c2ccc(CN)s2)cc1.Cl [8j, N-(2-((4-((5-(Aminomethyl)thiophen-2-yl)sulfonyl)phenyl)sulfonyl)ethyl)-acetamide Hydrochloride] | 
68% |  | 6.5 µM·h | 16 µM | CC(C)(C)c1cc(S(C)(=O)=O)cc(S(=O)(=O)c2ccc(CN)s2)c1 [9a, (5-((3-(tert-Butyl)-5-(methylsulfonyl)phenyl)sulfonyl)thiophen-2-yl)methanamine] | 
90% |  | 2.8 µM·h | 9.6 µM | Cl.Cl.Cn1cc(-c2cc(S(=O)(=O)c3ccc(CN)s3)ccc2S(C)(=O)=O)cn1 [9j, (5-((3-(1-Methyl-1H-pyrazol-4-yl)-4-(methylsulfonyl)phenyl)sulfonyl)thiophen-2-yl)methanamine Dihydrochloride] | 
41% |  | 1.4 µM·h | 1.6 µM | CS(=O)(=O)c1ccc(S(=O)(=O)c2ccc(CN)s2)cc1-c1ccccc1 [9k, (5-((6-(Methylsulfonyl)-[1,1′-biphenyl]-3-yl)sulfonyl)thiophen-2-yl)methanamine] | 
